Patent US20020052370A1, “Cyclopentyl-substituted glutaramide derivatives as inhibitors of neutral endopeptidase” (priority 2000, published 2002)

Tests used:
[1] = system: vaginal and clitoral blood flow; test: Anaesthetised rabbit model of sexual arousal: pelvic nerve stimulated genital blood flow by laser Doppler; format: in vivo, Female New Zealand rabbits
From the text: Animal Model of arousal response
We have developed an animal model that mimics the physiological arousal response observed during female sexual arousal and directly reflects the clinical data obtained in human volunteers. The model uses Laser Doppler technologies to record small changes in vaginal and clitoral blood flow induced by pelvic nerve stimulation or vasoactive neurotransmitters. During sexual arousal there is an increase in genital blood flow resulting from increased innervation from the pelvic nerve. This increase in genital blood flow leads to increased genital lubribriation and genital sensitivity which are associated with sexual arousal. The major cause of FSAD is decreased genital blood flow and this manifests itself as reduced vaginal, labial and clitoral engorgement. Treatment of women with FSAD is achievable by restoration of the normal sexual arousal response. This can be achieved by enhancing genital blood flow.
The title product from Example 29 was administered using this animal model according to the following protocol to show an enhancement in pelvic nerve stimulated increases in genital blood flow in the rabbit.
Two routes of administration were studied: a) intravenous administration and b) topical administration. Both studies used the anesthatised rabbit model according to the following protocol.
Female New Zealand rabbits (˜2.5 kg) were pre-medicated with a combination of Medetomidine (Domitor®) 0.5 ml/kg i.m., and Ketamine (Vetalar®) 0.25 ml/kg i.m. whilst maintaining oxygen intake via a face mask. The rabbits were tracheotomised using a Portex™ uncuffed endotracheal tube 3 ID, connected to ventilator and maintained a ventilation rate of 30-40 breaths per minute, with an approximate tidal volume of 18-20 ml, and a maximum airway pressure of 10 cm H2O. Anaesthesia was then switched to Isoflurane and ventilation continued with O2 at 2 l/min. The right marginal ear vein was cannulated using a 23 G or 24 G catheter, and Lactated Ringer solution perfused at 0.5 ml/min. The rabbit was maintained at 3% Isoflurane during invasive surgery, dropping to 2% for maintenance anaesthesia.
A ventral midline incision was made into the abdominal cavity. The incision was about 5 cm in length just above the pubis. The fat and muscle was bluntly dissected away to reveal the hypogastric nerve which runs down the body cavity. It was essential to keep close to the side curve of the pubis wall in order to avoid damaging the femoral vein and artery which lie above the pubis. The sciatic and pelvic nerves lie deeper and were located after further dissection on the dorsal side of the rabbit. Once the sciatic nerve is identified, the pelvic nerve was easily located. The term pelvic nerve is loosely applied; anatomy books on the subject fail to identify the nerves in sufficient detail. However, stimulation of the nerve causes an increase in vaginal and clitoral blood flow, and innervation of the pelvic region. The pelvic nerve was freed away from surrounding tissue and a Harvard bipolar stimulating electrode was placed around the nerve. The nerve was slightly lifted to give some tension, then the electrode was secured in position. Approximately 1 ml of light paraffin oil was placed around the nerve and electrode. […]
A frequency response curve was determined at the start of each experiment in order to determine the optimum frequency to use as a sub-maximal response, normally 4 Hz. […]

[2] = 1.0 mg/kg iv bolus infusion, submaximal stimulation (eg 4 Hz), anaesthetised rabbit, n=3

Row | SMILES | melting point | increase in clitoral blood flow (peak, pelvic nerve stimulated) [1, 2] | increase in vaginal blood flow (peak, pelvic nerve stimulated) [1, 2] | pelvic nerve stimulated increases in genital blood flow ([1]; both intravenous and topical administration, clinically relevant doses, rabbit) | peak pelvic nerve stimulated increase in vaginal blood flow ([1]; intravaginal topical application (0.2 mg/ml printed), vs mean control flow increases, n=4, P<0.001) | basal (non-stimulated) vaginal blood flow ([1]; intravaginal topical application, compared to control flow, n=4)
1 | O=C(O)C(CCc1ccccc1)CC1(C(=O)Nc2cccnc2)CCCC1 (stereo not drawn) [Example 41, 4-Phenyl-2-({1-[(3-pyridinylamino)carbonyl]cyclopentyl}methyl)butanoic acid] | 80 to 85 °C | – | – | – | – | –
2 | CCC[C@H](CC1(C(=O)Nc2nnc(CC)s2)CCCC1)C(=O)O [Example 29, (2R)-2-[(1-{[(5-Ethyl-1,3,4-thiadiazol-2-yl)amino]carbonyl}cyclopentyl)methyl]pentanoic acid] | – | 131% | 92% | significantly enhanced | significantly enhanced | no effect
